The source of these data is patent US20220296714A1, “TARGETED NANO-PHOTOMEDICINES FOR PHOTODYNAMIC THERAPY OF CANCER” (ERASMUS UNIVERSITY MEDICAL CENTER ROTTERDAM, priority 2009, published 2022).

Data set [1] can be described thus: Photobleaching under laser irradiation, measured with a fluorescence spectrometer. The format is physicochemical. The settings on record: total dose 10 J cm^−2, nearly same initial fluorescence intensity. The procedure:
Photobleaching characteristics of free Ce6 and nanophotomedicine (NPM-3) having nearly the same initial florescence intensity (that correlate with concentration of the drug) is compared using a fluorescence spectrometer. Laser irradiation of samples of both products was carried out under identical condition of a total dose of 10 J cm^−2. FIG. 4 illustrates the changes in the fluorescence emission characteristics of both the samples. […] In effect, this leads to long term stability of the drug within the construct even after extended duration of therapy.

Data set [2] concerns Leukemia cells K562. Description: Intracellular photobleaching by confocal imaging under 405 nm laser. The format is cell-based, human. The settings on record: 1 μM sensitizer, 3 hrs incubation, 1-360 seconds. The procedure:
Leukemia cells K562 were seeded at 800.000 cells/well in a 12 well tissue culture plate and treated with both free Ce6 (1 μM) and nanophotomedicine (NPM-3) prepared by using the same concentration of the sensitizer. Cells were incubated at 37° C. for 3 hrs before imaging using confocal microscope. Fluorescence imaging was carried out by exciting the sensitizer or nanophotomedicine taken-up by the cells using 405 nm laser. For recording the photobleaching at intracellular regions of the cancer cells, which has significant correlation to therapeutic effects, imaging is carried out after stipulated duration of laser irradiation from 1-360 seconds).

Consider chlorin e6 [free Ce6], for which the “photodose at which the drug is inactivated by photobleaching” value in data set [1] is recorded as 2.5 J cm^−2. Moreover, the “duration of laser irradiation until intracellular fluorescence is bleached out” value in data set [2] was found to be 30 s.
